Measured values: patent publication US11465989B2, “Guanidine compounds and use thereof” (IMMUNOMET THERAPEUTICS INC., priority 2014, dated 2022)
Where a name gives a salt, the structure may show the parent alone. Read-outs that look alike come from different tables or passages of the source.

Experiments:
A549 cells = assay: Inhibition of OCR (XF Analyzer); assay type: cell-based
From the text: The electron transfer complex in mitochondria is composed of 5 complexes. The complex I accept electrons from NADH produced from glycolysis and TCA cycle and the electrons move to complex […] and the electron is finally transferred to O2 and water molecule is generated. During the electron transfer, proton gradient is generated and the chemical gradient is a driving source to synthesize ATP at complex V. The mitochondrial inhibition of complex I indirectly assessed by measuring the oxygen consumption rate (OCR) at complex IV. […] The solution outside of cells becomes acidic (lower pH) as lactate is transported to outside of cells. OCR and Extracellular acidification rate (ECAR) are determined by XF Analyzer (Seahorse Biosciences).
A549 cells were purchased from American Type Tissue Culture Collection ([…]) and cultured in RPMI 1640 supplied with 10% fetal bovine serum (FBS) and antibiotic-antimycotic (Lifetech, CA). A549 cells were separated with 0.5% Trypsin-EDTA and 3,000 cells were plated on 1 mg/ml poly-D-lysine (Sigma, P6407) coated XF 96 well […]. A549 cells were allowed to adhere to the wells for 24 hours under the condition of temperature, 37° C. and 5% CO2 The sensor cartridge of XF Analyzer was soaked in 200 Ad of Calibrant solution (Seahorse, MA) in a clear 96-well plate at 37° C. for 24 hours. The compounds of the present invention were diluted with RPMI 1640 without FBS, transferred to A549 cells on XF 96 well plate, and incubated further for 23 hours at 37° C. and 5% CO2. After incubation, the compound solution was exchanged with pre-warmed and pH adjusted (pH7.4) XF assay media (Seahorse) supplied with 15 mM D-glucose (Sigma), 15 mM sodium pyruvate (Lifetechnologies, CA) and 4 mM L-glutamine (Lifetechnologies, CA). The compounds of present invention were prepared in XF Assay media and added to the assay plate. The assay plate was equilibrated in XF Analyzer for 1 hour, and the reading were started by sensor cartridge. The cytotoxicity assay was followed using Cyquant (Lifetechnologies, CA) in order to calibrate the inhibition with cytotoxicity of compounds. The concentrations of the compounds were tested at […] and IC50 value was obtained from the inhibited values. That is, from OCR inhibition values at each concentration of the compound, IC50 was calculated according to Prism's dose response curve fitting.
In Table 1, the levels of OCR IC50 are evaluated by the following.

SK-MEL-28 cells = assay: Cytotoxicity in low glucose condition (MTT); assay type: cell-based; conditions: SK-MEL-28, 0.75 mM glucose, 72 hours, read-out: SK-MEL-28 0.75 mM glucose Cell viability (IC50 ia)
From the text: The inhibition of oxidative phosphorylation (OXPHOS) is not cytotoxic to cells in normal glucose condition, because it is postulated that normal cells have compensatory mechanism under energy stress conditions such as low glucose. However OXPHOS inhibitors show cytotoxic effect on cells in the glucose deprived condition (BirsoyK, 2014). The glucose deprived condition is observed in tumor microenvironment potentially due to poor angiogenesis. Therefore the OXPHOS inhibitors may show anti-cancer effect on cancer cells in low glucose condition that may depict tumor microenvironment.
The compounds of the present invention were evaluated their cytotoxicity in SK-MEL-28, melanoma with 0.75 mM glucose supplement. The cytotoxic effect is compared with the cytotoxicity caused by phenformin. The cytotoxicity in low glucose condition is correlated with inhibition of oxygen consumption in mitochondria.
SK-MEL-28 (HTB-72) is a melanoma cell line obtained from ATCC (MA) and cultured in RPMI 1640 media (Lifetechnologies, CA) with supplement of 10% FBS and antibiotic-antimycotic (Lifetechnologies, CA). RPMI 1640 (-Glucose) was used to prepare low glucose media and 0.75 mM glucose was supplied with D-(+)-glucose solution from Sigma. SK-MEL-28 cells were separated from culture plate using 0.5% trypsin-EDTA and 5,000 cells were plated in 96-well plate with low glucose media. After incubation at 37° C. for 24 hour, 5% CO2, the cells were treated with the compounds of present invention in FBS-free media for 72 hours. The cytotoxicity was measured by the MTT (AMRESCO, OH) assay. NADH-dependent cellular oxidoreductase reduces MTT to its insoluble […] with purple color. The enzyme depends on cell number or energy state of cells. 10 μl of 5 mg/ml MIT solution was added to each well of the assay plate and skip the well for blank. The plate was incubated at 37° C. and 5% CO2 for 2 hours. The MTT solution was removed from each well and 100 μl of DMSO was added. The plate was read by VICTOR X3 Multilabel Counter at the wavelength of 550 nm. In Table 2, the levels of IC50 are evaluated by the following criteria.

SMILES | IC50 (A549 cells; Homo sapiens, A549, 24 h) | IC50 (SK-MEL-28 cells; Homo sapiens) | IC50 (A549 cells; A549, 24 hrs) | IC50 (SK-MEL-28 cells)
COc1cc(Br)ccc1CCNC(=N)NC(=N)N [Example 81, N1-(2-methoxy-4-bromo)phenethylbiguanide hydrochloride] | < 2 µM | 5 to 10 µM | – | –
N=C(N)NC(=N)NCCc1ccc2c(c1)CCCC2 [Example 44, N-1-2-(5,6,7,8-tetrahydronaphthalen-2-yl)ethylbiguanide hydrochloride] | 2 to 5 µM | < 5 µM | – | –
CNC(=N)NC(=N)NCCc1ccc(Cl)c(Cl)c1 [Example 122, N-1-(3,4-dichloro)phenethyl-N5-methylbiguanide hydrochloride] | > 5 µM | 5 to 10 µM | – | –
COc1cc(CCNC(=N)NC(=N)N)ccc1I [Example 77, N-1-(4-iodo-3-methoxy)phenethylbiguanide hydrochloride] | 2 to 5 µM | 5 to 10 µM | – | –
N=C(N)NCCC1CCCC1 [Example 204, 1-(2-cyclopentylethyl) guanide hydrochloride] | 2 to 5 µM | > 10 µM | – | –
N=C(N)NC(=N)NCCc1ccc2c(c1)CCC2 [Example 66, N-1-2-(2,3-dihydro-1H-inden-5-yl)ethylbiguanide hydrochloride] | 2 to 5 µM | < 5 µM | – | –
N=C(N)NC(=N)NCCc1ccc2c(c1)CCCC2 [Example 30, N-1-(2-(5,6,7,8-tetrahydronaphthalen-2-yl)ethyl)biguanide hydrochloride] | – | – | > 5 µM | < 5 µM
N=C(N)NC(=N)NCCc1ccc(F)c(Cl)c1 [Example 52, N-1-(3-chloro-4-fluoro)phenethylbiguanide hydrochloride] | > 5 µM | 5 to 10 µM | – | –
Cc1cc(F)ccc1CCNC(=N)NC(=N)N [Example 17, N-1-(4-fluoro-2-methyl)phenethylbiguanide hydrochloride] | 2 to 5 µM | > 10 µM | – | –
COc1cc(Cl)ccc1CCNC(=N)NC(=N)N [Example 80, N-1-(2-methoxy-4-chloro)phenethylbiguanide hydrochloride] | < 2 µM | > 10 µM | – | –
N=C(N)NC(=N)NCCc1ccc(I)cc1 [Example 71, N-1-(4-iodo)phenethylbiguanide hydrochloride] | > 5 µM | > 10 µM | – | –
Cc1ccc(CCNC(=N)N)cc1C [Example 133, 1-(3,4-dimethylphenethyl)guanide hydrochloride] | < 2 µM | 5 to 10 µM | – | –
Cc1ccccc1CCNC(=N)N [Example 161, 1-(2-methylphenethyl)guanide hydrochloride] | 2 to 5 µM | > 10 µM | – | –
N=C(N)NC(=N)NCCc1ccccc1Cl [Example 3, N-1-(2-chloro)phenethylbiguanide hydrochloride] | < 2 µM | 5 to 10 µM | – | –
N=C(N)NCc1c(F)cc(F)cc1F [Example 153, 1-(2,4,6-trifluorobenzyl)guanide hydrochloride] | > 5 µM | > 10 µM | – | –

Now from value to compound, other results behind:

IC50 (A549 cells; Homo sapiens, A549, 24 h) | SMILES | IC50 (SK-MEL-28 cells; Homo sapiens) | IC50 (A549 cells; A549, 24 hrs) | IC50 (SK-MEL-28 cells)
> 5 µM | N=C(N)NC(=N)NCCc1ccc(I)c(Br)c1 [Example 72, N-1-(4-iodo-3-bromo)phenethylbiguanide hydrochloride] | 5 to 10 µM | – | –
> 5 µM | N=C(N)NCc1ccc2c(c1)CCCC2 [Example 199, 1-((5,6,7,8-tetrahydronaphthalen-2-yl)methylguanide hydrochloride] | > 10 µM | – | –
2 to 5 µM | N=C(N)NC(=N)NCCc1ccc(Br)c(Br)c1 [Example 70, N-1-(3,4-dibromo)phenethylbiguanide hydrochloride] | < 5 µM | – | –
2 to 5 µM | Cc1ccc(CCNC(=N)NC(=N)N)cc1Cl [Example 50, N-1-(3-chloro-4-methyl)phenethylbiguanide hydrochloride] | < 5 µM | – | –
> 5 µM | Cc1ccc(CNC(=N)NC(=N)N)c(C)c1 [Example 18, N-1-(2,4-dimethyl)benzylbiguanide hydrochloride] | > 10 µM | – | –
2 to 5 µM | Cc1cc(CNC(=N)NC(=N)N)ccc1Br [Example 68, N-1-(4-bromo-3-methyl)benzylbiguanide hydrochloride] | 5 to 10 µM | – | –
> 5 µM | CNC(=N)NC(=N)NCCc1ccc2c(c1)CCCC2 [Example 126, N-1-methyl-N-5-(2-(5,6,7,8-tetrahydronaphthalen-2-yl)ethyl) biguanide hydrochloride] | < 5 µM | – | –
2 to 5 µM | N=C(N)NCCc1ccc(C2CC2)cc1 [Example 182, 1-(4-cyclopropylphenethyl)guanide hydrochloride] | 5 to 10 µM | – | –
2 to 5 µM | N=C(N)NCC1CCCCC1 [Example 205, 1-(1-cyclohexylmethyl) guanide hydrochloride] | > 10 µM | – | –
> 5 µM | N=C(N)NC(=N)NCc1ccc(-c2ccccc2)cc1 [Example 49, N-1-(4-phenyl)benzylbiguanide hydrochloride] | > 10 µM | – | –
2 to 5 µM | N=C(N)NC(=N)NCCc1ccc(Cl)c(Br)c1 [Example 76, N-1-(3-bromo-4-chloro)phenethylbiguanide hydrochloride] | < 5 µM | – | –
< 2 µM | Cc1ccccc1CCNC(=N)NC(=N)N [Example 22, N-1-(2-methyl)phenethylbiguanide hydrochloride] | > 10 µM | – | –
> 5 µM | N=C(N)NC(=N)NCc1ccc(Cl)c(Cl)c1 [Example 37, hydrochloride] | 5 to 10 µM | – | –
> 5 µM | CCCNC(=N)NC(=N)NCCc1ccc(Cl)c(Cl)c1 [Example 128, N-1-propyl-N-5-(3,4-dichloro)phenethylbiguanide hydrochloride] | < 5 µM | – | –
< 2 µM | N=C(N)NC(=N)NCCc1ccccc1Br [Example 26, N-1-(2-bromo)phenethylbiguanide hydrochloride] | < 5 µM | – | –
< 2 µM | COc1cc(I)ccc1CCNC(=N)NC(=N)N [Example 79, N-1-(2-methoxy-4-iodo)phenethylbiguanide hydrochloride] | 5 to 10 µM | – | –
< 2 µM | N=C(N)NCCc1ccc2c(c1)CCCC2 [Example 183, 1-(2-(5,6,7,8-tetrahydronaphthalen-2-yl)ethyl)guanide hydrochloride] | < 5 µM | – | –
2 to 5 µM | N=C(N)NCCC1CCCCC1 [Example 197, 1-(2-cyclohexylethyl)guanide hydrochloride] | > 10 µM | – | –
> 5 µM | Cc1cc(F)ccc1CCNC(=N)N [Example 169, 1-(4-fluoro-2-methylphenethyl)guanide hydrochloride] | > 10 µM | – | –
2 to 5 µM | Cc1cc(CCNC(=N)NC(=N)N)ccc1Cl [Example 61, N-1-(4-chloro-3-methyl)phenethylbiguanide hydrochloride] | < 5 µM | – | –
